Test results published in PubChem BioAssay (NCI).
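Test compounds were applied to cells in 96-well plates for 48 hours at 5 doses. At the GI50, growth is halved. TGI denotes the concentration required for complete inhibition of growth.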

Legend:
Assay in all cases: NCI tumour cell line growth inhibition, 48 h
SN12C renal = system: SN12C renal
HCC-2998 colon = system: HCC-2998 colon
CCRF-CEM leukemia = system: CCRF-CEM leukemia
786-0 renal = system: 786-0 renal
SNB-75 CNS = system: SNB-75 CNS
K-562 leukemia = system: K-562 leukemia
MALME-3M melanoma = system: MALME-3M melanoma
SR leukemia = system: SR leukemia
CAKI-1 renal = system: CAKI-1 renal
EKVX NSCLC = system: EKVX NSCLC
IGROV1 ovarian = system: IGROV1 ovarian
RPMI-8226 leukemia = system: RPMI-8226 leukemia
UACC-62 melanoma = system: UACC-62 melanoma
NCI-H522 lung = system: NCI-H522 lung
MCF7 breast = system: MCF7 breast
UACC-257 melanoma = system: UACC-257 melanoma
HT29 colon = system: HT29 colon
HOP-92 NSCLC = system: HOP-92 NSCLC
PC-3 prostate = system: PC-3 prostate
COLO 205 colon = system: COLO 205 colon
SK-MEL-5 melanoma = system: SK-MEL-5 melanoma
NCI-H23 lung = system: NCI-H23 lung
MDA-MB-435 = system: MDA-MB-435
SW-620 colon = system: SW-620 colon
HCT-116 colon = system: HCT-116 colon
SF-539 CNS = system: SF-539 CNS
MDA-N = system: MDA-N
ACHN renal = system: ACHN renal
NCI/ADR-RES ovarian = system: NCI/ADR-RES ovarian
BT-549 breast = system: BT-549 breast
OVCAR-3 ovarian = system: OVCAR-3 ovarian
RXF 393 renal = system: RXF 393 renal
A549 NSCLC = system: A549 NSCLC
KM12 colon = system: KM12 colon
M14 melanoma = system: M14 melanoma
SK-MEL-2 melanoma = system: SK-MEL-2 melanoma
TK-10 renal = system: TK-10 renal
SF-295 CNS = system: SF-295 CNS
NCI-H460 lung = system: NCI-H460 lung
SF-268 CNS = system: SF-268 CNS
LOX IMVI melanoma = system: LOX IMVI melanoma
DU-145 prostate = system: DU-145 prostate
HOP-62 NSCLC = system: HOP-62 NSCLC
NCI-H226 lung = system: NCI-H226 lung
OVCAR-8 ovarian = system: OVCAR-8 ovarian
OVCAR-4 ovarian = system: OVCAR-4 ovarian
MDA-MB-231 breast = system: MDA-MB-231 breast
OVCAR-5 ovarian = system: OVCAR-5 ovarian
SK-OV-3 ovarian = system: SK-OV-3 ovarian
U251 CNS = system: U251 CNS
SK-MEL-28 melanoma = system: SK-MEL-28 melanoma
SNB-19 CNS = system: SNB-19 CNS
HCT-15 colon = system: HCT-15 colon
UO-31 renal = system: UO-31 renal
MOLT-4 leukemia = system: MOLT-4 leukemia
HS 578T breast = system: HS 578T breast
T-47D breast = system: T-47D breast
A498 renal = system: A498 renal

`CCOC(=O)C1C2CCC1CC(=NNc1ccc([N+](=O)[O-])cc1[N+](=O)[O-])C2` (centres undefined) was tested, and the TGI (SN12C renal) was over 50 µM, the TGI (HCC-2998 colon) was over 50 µM and the TGI (CCRF-CEM leukemia) was over 50 µM. It also gave a TGI (786-0 renal) of over 50 µM, a TGI (SNB-75 CNS) of over 50 µM and a TGI (K-562 leukemia) of over 50 µM. The TGI (MALME-3M melanoma) was over 50 µM, the TGI (SR leukemia) was over 50 µM and the TGI (CAKI-1 renal) was over 50 µM. For the same molecule, the TGI (EKVX NSCLC) was over 50 µM, the TGI (IGROV1 ovarian) was over 50 µM and the TGI (RPMI-8226 leukemia) was over 50 µM. For the same molecule, the TGI (UACC-62 melanoma) was over 50 µM, the TGI (NCI-H522 lung) was over 50 µM and the TGI (MCF7 breast) was over 50 µM. It also gave a TGI (UACC-257 melanoma) of over 50 µM, a TGI (HT29 colon) of over 50 µM and a TGI (HOP-92 NSCLC) of 48.7 µM. The TGI (PC-3 prostate) was over 50 µM, the TGI (COLO 205 colon) was over 50 µM and the TGI (SK-MEL-5 melanoma) was over 50 µM. It also gave a TGI (NCI-H23 lung) of over 50 µM, a TGI (MDA-MB-435) of over 50 µM and a TGI (SW-620 colon) of over 50 µM. For the same molecule, the TGI (HCT-116 colon) was over 50 µM, the TGI (SF-539 CNS) was over 50 µM and the TGI (MDA-N) was over 50 µM. For the same molecule, the TGI (ACHN renal) was over 50 µM, the TGI (NCI/ADR-RES ovarian) was over 50 µM and the TGI (BT-549 breast) was over 50 µM. It also gave a TGI (OVCAR-3 ovarian) of over 50 µM, a TGI (RXF 393 renal) of over 50 µM and a TGI (A549 NSCLC) of over 50 µM. It also gave a TGI (KM12 colon) of over 50 µM, a TGI (M14 melanoma) of over 50 µM and a TGI (SK-MEL-2 melanoma) of over 50 µM. The TGI (TK-10 renal) was over 50 µM, the TGI (SF-295 CNS) was over 50 µM and the TGI (NCI-H460 lung) was over 50 µM. It also gave a TGI (SF-268 CNS) of over 50 µM, a TGI (LOX IMVI melanoma) of over 50 µM and a TGI (DU-145 prostate) of over 50 µM. For the same molecule, the TGI (HOP-62 NSCLC) was over 50 µM, the TGI (NCI-H226 lung) was over 50 µM and the TGI (OVCAR-8 ovarian) was over 50 µM. For the same molecule, the TGI (OVCAR-4 ovarian) was over 50 µM, the TGI (MDA-MB-231 breast) was over 50 µM and the TGI (OVCAR-5 ovarian) was over 50 µM. For the same molecule, the TGI (SK-OV-3 ovarian) was over 50 µM, the TGI (U251 CNS) was over 50 µM and the TGI (SK-MEL-28 melanoma) was over 50 µM. It also gave a TGI (SNB-19 CNS) of over 50 µM, a TGI (HCT-15 colon) of over 50 µM and a TGI (UO-31 renal) of over 50 µM. For the same molecule, the TGI (MOLT-4 leukemia) was over 50 µM.
`C#Cc1c(I)n(C2OC(CO[Si](C)(C)C(C)(C)C)C3OC(C)(C)OC32)c(=O)[nH]c1=O` (centres undefined) was tested, and the GI50 (SN12C renal) was 18.5 µM, the TGI (SN12C renal) was 37.6 µM and the GI50 (HCC-2998 colon) was 2.36 µM. The TGI (HCC-2998 colon) was 6.38 µM, the GI50 (CCRF-CEM leukemia) was 4 µM and the TGI (CCRF-CEM leukemia) was 11.9 µM. The GI50 (786-0 renal) was 14.7 µM, the TGI (786-0 renal) was 29.4 µM and the GI50 (SNB-75 CNS) was 14.4 µM. The TGI (SNB-75 CNS) was 29.4 µM, the GI50 (HS 578T breast) was 19.7 µM and the TGI (HS 578T breast) was 66.8 µM. The GI50 (K-562 leukemia) was 2.08 µM, the TGI (K-562 leukemia) was 5.37 µM and the GI50 (MALME-3M melanoma) was 2.41 µM. It also gave a TGI (MALME-3M melanoma) of 6.59 µM, a GI50 (SR leukemia) of 2.62 µM and a TGI (SR leukemia) of 12.8 µM. For the same molecule, the GI50 (CAKI-1 renal) was 11.6 µM, the TGI (CAKI-1 renal) was 24.8 µM and the GI50 (EKVX NSCLC) was 20.6 µM. For the same molecule, the TGI (EKVX NSCLC) was 52.3 µM, the GI50 (IGROV1 ovarian) was 4.46 µM and the TGI (IGROV1 ovarian) was 19.1 µM. It also gave a GI50 (RPMI-8226 leukemia) of 3.63 µM, a TGI (RPMI-8226 leukemia) of 13.7 µM and a GI50 (UACC-62 melanoma) of 17.9 µM. The TGI (UACC-62 melanoma) was 33.7 µM, the GI50 (NCI-H522 lung) was 1.72 µM and the TGI (NCI-H522 lung) was 3.52 µM. The GI50 (MCF7 breast) was 16.6 µM, the TGI (MCF7 breast) was 50 µM and the GI50 (UACC-257 melanoma) was 15.2 µM. The TGI (UACC-257 melanoma) was 29.8 µM, the GI50 (HT29 colon) was 19.2 µM and the TGI (HT29 colon) was 52.2 µM. The GI50 (HOP-92 NSCLC) was 12.4 µM, the TGI (HOP-92 NSCLC) was 26.1 µM and the GI50 (PC-3 prostate) was 1.72 µM. The TGI (PC-3 prostate) was 4.27 µM, the GI50 (COLO 205 colon) was 2.24 µM and the TGI (COLO 205 colon) was 4.8 µM. It also gave a GI50 (SK-MEL-5 melanoma) of 13.1 µM, a TGI (SK-MEL-5 melanoma) of 27.1 µM and a GI50 (NCI-H23 lung) of 18.9 µM. It also gave a TGI (NCI-H23 lung) of 39.6 µM, a GI50 (MDA-MB-435) of 15 µM and a TGI (MDA-MB-435) of 31 µM. The GI50 (T-47D breast) was 5.42 µM, the TGI (T-47D breast) was 28 µM and the GI50 (SW-620 colon) was 2.36 µM. For the same molecule, the TGI (SW-620 colon) was 6.42 µM, the GI50 (HCT-116 colon) was 2.78 µM and the TGI (HCT-116 colon) was 10.1 µM. It also gave a GI50 (SF-539 CNS) of 16.6 µM, a TGI (SF-539 CNS) of 31.4 µM and a GI50 (ACHN renal) of 17.8 µM. The TGI (ACHN renal) was 39.7 µM, the GI50 (NCI/ADR-RES ovarian) was 23.5 µM and the TGI (NCI/ADR-RES ovarian) was 59.1 µM. The GI50 (BT-549 breast) was 16.4 µM, the TGI (BT-549 breast) was 31.2 µM and the GI50 (OVCAR-3 ovarian) was 1.65 µM. It also gave a TGI (OVCAR-3 ovarian) of 3.56 µM, a GI50 (RXF 393 renal) of 3.68 µM and a TGI (RXF 393 renal) of 14.2 µM. For the same molecule, the GI50 (A549 NSCLC) was 49.6 µM, the TGI (A549 NSCLC) was over 100 µM and the GI50 (KM12 colon) was 16.9 µM. It also gave a TGI (KM12 colon) of 35.6 µM, a GI50 (M14 melanoma) of 16.3 µM and a TGI (M14 melanoma) of 33.3 µM. It also gave a GI50 (SK-MEL-2 melanoma) of 5.35 µM, a TGI (SK-MEL-2 melanoma) of 26.1 µM and a GI50 (TK-10 renal) of 11.2 µM. The TGI (TK-10 renal) was 26.5 µM, the GI50 (SF-295 CNS) was 28.4 µM and the TGI (SF-295 CNS) was 98.7 µM. The GI50 (NCI-H460 lung) was 20 µM, the TGI (NCI-H460 lung) was 40.4 µM and the GI50 (SF-268 CNS) was 12.3 µM. For the same molecule, the TGI (SF-268 CNS) was 27.8 µM, the GI50 (LOX IMVI melanoma) was 3.42 µM and the TGI (LOX IMVI melanoma) was 18.5 µM. For the same molecule, the GI50 (DU-145 prostate) was 4.57 µM, the TGI (DU-145 prostate) was 19.4 µM and the GI50 (HOP-62 NSCLC) was 20 µM. For the same molecule, the TGI (HOP-62 NSCLC) was 38.4 µM, the GI50 (NCI-H226 lung) was 17.7 µM and the TGI (NCI-H226 lung) was 32.5 µM. For the same molecule, the GI50 (OVCAR-8 ovarian) was 12.1 µM, the TGI (OVCAR-8 ovarian) was 27.8 µM and the GI50 (OVCAR-4 ovarian) was 17.8 µM. The TGI (OVCAR-4 ovarian) was 37.6 µM, the GI50 (MDA-MB-231 breast) was 5.24 µM and the TGI (MDA-MB-231 breast) was 19.9 µM. For the same molecule, the GI50 (OVCAR-5 ovarian) was 20.4 µM, the TGI (OVCAR-5 ovarian) was 37 µM and the GI50 (SK-OV-3 ovarian) was 33.2 µM. For the same molecule, the TGI (SK-OV-3 ovarian) was over 100 µM, the GI50 (U251 CNS) was 19.5 µM and the TGI (U251 CNS) was 65.8 µM. It also gave a GI50 (SK-MEL-28 melanoma) of 2 µM, a TGI (SK-MEL-28 melanoma) of 4.43 µM and a GI50 (SNB-19 CNS) of 24.1 µM. The TGI (SNB-19 CNS) was 78.8 µM, the GI50 (A498 renal) was 17.1 µM and the TGI (A498 renal) was 35.7 µM. For the same molecule, the GI50 (HCT-15 colon) was 4.09 µM, the TGI (HCT-15 colon) was over 100 µM and the GI50 (UO-31 renal) was 1.99 µM. The TGI (UO-31 renal) was 5.49 µM, the GI50 (MOLT-4 leukemia) was 2.17 µM and the TGI (MOLT-4 leukemia) was 6.69 µM.
